Read-outs that look alike come from different tables or passages of the source.
Columns and labels:
[1] = system: HCV NS3 protein level (genotype 1b); experiment: GT 1b Western blot of HCV protein in Bart79I RNA-transfected Huh7.5 cells; format: cell-based, Hepatitis C virus; conditions: for T1/2 (time for 50% reduction of HCV protein): compound at 10 μM, Western blot, Huh7.5-Bart79I (genotype 1b)
[2] = system: genotype 1b HCV replication (Bart79I); experiment: GT 1b RT-PCR in Bart79I replicon Huh7.5 cells; format: cell-based, Hepatitis C virus
[3] = system: genotype 2a HCV replication (Rluc-J6/JFH1); experiment: GT 2a luciferase reporter assay in Rluc-J6/JFH1 RNA-transfected Huh7.5 cells; format: cell-based, Hepatitis C virus
Huh7.5 cells = experiment: in vitro; format: cell-based; conditions: Table 1 summary; read-out: CC50 (M), GT 2a luciferase reporter assay
[4] = In vivo pharmacokinetic study of SVF in mice; conditions: male, ICR, mouse, plasma
[5] = system: genotype 2a HCV replication (J6/JFH1); experiment: GT 2a RT-PCR in J6/JFH1 RNA-transfected Huh7.5 cells; format: cell-based, Hepatitis C virus
[6] = system: HCV NS3 protein expression (genotype 2a); experiment: GT 2a Western blot of HCV NS3 protein in J6/JFH1 RNA-transfected Huh7.5 cells; format: cell-based, Hepatitis C virus; conditions: for T1/2 (time required for 50% reduction of the HCV NS3 protein): compound at 10 μM, Western blot, Huh7.5-J6/JFH1 (genotype 2a)
[7] = parameters: method as in ref 25 = [25]; conditions: mice; cited from earlier work
[8] = target: T1, genotype 1b HCV NS3 helicase (Hepatitis C virus genotype 1b, UniProt Q9WMX2); experiment: Graphene oxide (GO)-based NS3 helicase inhibition assay; format: biochemical
T1 construct: 2 nM of HCV NS3 helicase in a total volume of 60 μL

in vitro = format: cell-based; conditions: human; Table 1 summary; read-out: CC50 (M), GT 2a luciferase reporter assay
HCV replication = system: HCV replication; parameters: method as in ref 14 = [14]; conditions: previous study, cited from earlier work
viral helicase NS3 = target: viral helicase NS3; parameters: method as in ref 14 = [14]; conditions: previous study; cited from earlier work
[9] = parameters: method as in ref 14 = [14]; conditions: previous study; cited from earlier work
[10] = cited from earlier work
[11] = read-out: EC50 (M), GT 1b RT-PCR, Table 1 summary
[12] = read-out: EC50 (M), GT 2a RT-PCR, Table 1 summary
[13] = read-out: EC50 (M), GT 2a Western blot, Table 1 summary
[14] = Hepatitis C virus, Huh7.5, read-out: EC50 (M), GT 1b Western blot
[15] = Hepatitis C virus, GETYPE2A|GT2A, Huh7.5, read-out: EC50 (M), GT 2a luciferase reporter assay, Table 1 summary

T1 sequence (Q9WMX2 1027-1657): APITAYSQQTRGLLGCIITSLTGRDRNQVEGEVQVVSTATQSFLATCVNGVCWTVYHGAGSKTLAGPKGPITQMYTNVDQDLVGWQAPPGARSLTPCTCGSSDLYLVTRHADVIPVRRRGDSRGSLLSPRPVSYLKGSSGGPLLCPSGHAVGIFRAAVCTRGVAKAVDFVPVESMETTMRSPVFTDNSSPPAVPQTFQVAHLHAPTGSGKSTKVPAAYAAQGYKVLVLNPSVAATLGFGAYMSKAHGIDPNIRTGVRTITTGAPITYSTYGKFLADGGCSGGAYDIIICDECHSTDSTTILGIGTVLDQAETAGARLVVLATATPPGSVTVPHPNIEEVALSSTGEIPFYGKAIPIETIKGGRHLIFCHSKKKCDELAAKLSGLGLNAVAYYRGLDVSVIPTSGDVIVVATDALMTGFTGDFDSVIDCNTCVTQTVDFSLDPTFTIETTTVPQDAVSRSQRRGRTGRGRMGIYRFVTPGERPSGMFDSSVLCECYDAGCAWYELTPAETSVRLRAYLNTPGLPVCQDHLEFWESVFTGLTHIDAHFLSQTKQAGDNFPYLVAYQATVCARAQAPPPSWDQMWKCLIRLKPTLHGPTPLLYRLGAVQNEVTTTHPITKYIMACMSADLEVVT

In the case of Oc1ccc(/C=C/c2cc(O)cc3c2C(c2cc(O)cc(O)c2)C(c2ccc(O)cc2)O3)cc1 (racemic) [SVF, (±)- -viniferin], the “T1/2 (time for 50% reduction of HCV protein)” value [1] is reported as 13.1 h, the EC50 ([1]; read-out: EC50 (M), GT 1b Western blot, Table 1 summary) is reported as 9e-07 M and the EC50 [2, 11] is reported as 1.7e-06 M. It also gave an EC50 ([3]; read-out: EC50 (M), GT 2a luciferase reporter assay, Table 1 summary) of 2e-07 M, a CC50 (Huh7.5 cells) greater than 1e-05 M and a Cmax ([4]; ip, intraperitoneal dose of 15 mg/kg, read-out: Cmax) of 2130 ± 403 ng/mL. The Tmax ([4]; oral dose of 50 mg/kg) was 0.375 h, the Cmax ([4]; oral dose of 50 mg/kg, read-out: mean Cmax) was 53.5 ± 28.2 ng/mL and the EC50 [5, 12] was 9.3e-06 M. For the same molecule, the “T1/2 (time required for 50% reduction of the HCV NS3 protein)” value [6] was 37.1 h, the EC50 [6, 13] was 6.4e-06 M and the oral bioavailability [7] was “below 1%”.
For Oc1ccc(/C=C/c2cc(O)cc(O)c2)cc1 [resveratrol, reference compound], the “dose-dependent increase of fluorescence (helicase inhibition)” value ([8]; negative control, up to a concentration of 10 μM) was “did not”.
In the case of Oc1ccc(/C=C/c2cc(O)cc3c2C(c2cc(O)cc(O)c2)C(c2ccc(O)cc2)O3)cc1 (stereo not drawn) [EVF, (+)-ε-viniferin], the EC50 [1, 14] is reported as 9e-07 M, the “T1/2 (time for 50% reduction of HCV protein)” value [1] is reported as 58.2 h and the EC50 [2, 11] is reported as 7e-06 M. The EC50 [3, 15] was 1e-07 M, the “fold more antiviral activity than SVF” value ([3]; genotype 2a renilla luciferase-based HCV replication assay) was 2.0 fold and the IC50 ([8]; Cy5-dsDNA substrate, 2 nM HCV NS3 helicase, fluorescence Ex/Em 650/675 nm, read-out: IC50 (half maximal inhibitory concentration), NS3 helicase) was 58.7 nM. The CC50 at 72 h (in vitro) was greater than 1e-05 M, the “fold more antiviral activity than SVF” value ([5]; genotype 2a RT-PCR-based HCV replication assay) was 3.2 fold and the EC50 [5, 12] was 2.9e-06 M. For the same molecule, the “T1/2 (time required for 50% reduction of the HCV NS3 protein)” value [6] was 35.1 h and the EC50 [6, 13] was 1.2e-06 M.
In the case of Oc1ccc([C@H]2Oc3cc(O)cc(/C=C/c4ccc5c(c4)[C@@H](c4cc(O)cc6c4[C@H](c4cc(O)cc(O)c4)[C@@H](c4ccc(O)cc4)O6)[C@H](c4ccc(O)cc4)O5)c3[C@@H]2c2cc(O)cc(O)c2)cc1 [vitisin B], the EC50 (HCV replication; read-out: EC50, anti-HCV activity) is given as 6 nM, the IC50 (viral helicase NS3) is given as 3 nM and the CC50 [9] is given as greater than 10000 nM.
For Oc1ccc(/C=C/c2cc(O)cc3c2C(c2cc(O)cc(O)c2)C(c2ccc(O)cc2)O3)cc1 (stereo not shown) [viniferin], the oral bioavailability [10] is listed as “less than 1%” and the EC50 (HCV replication; read-out: EC50 value for inhibiting HCV replication in vitro) is listed as 1000 nM.
In the case of CC(=O)Oc1ccc(/C=C/c2cc(OC(C)=O)cc3c2C(c2cc(OC(C)=O)cc(OC(C)=O)c2)C(c2ccc(OC(C)=O)cc2)O3)cc1 (racemic) [SVF-5Ac, penta-acetylated (±)- -viniferin], the EC50 [1, 14] is reported as 8e-07 M, the “T1/2 (time for 50% reduction of HCV protein)” value [1] is reported as 29.6 h and the EC50 ([2]; Hepatitis C virus, GETYPE1B|GT1B, Huh7.5, read-out: EC50 (M), GT 1b RT-PCR, Table 1 summary) is reported as 1.04e-05 M. It also gave an EC50 [3, 15] of 2.4e-06 M, a CC50 at 72 h (in vitro) greater than 1e-05 M and an EC50 ([5]; Hepatitis C virus, GETYPE2A|GT2A, Huh7.5, read-out: EC50 (M), GT 2a RT-PCR, Table 1 summary) of 4.7e-06 M. For the same molecule, the EC50 ([6]; Hepatitis C virus, GETYPE2A|GT2A, Huh7.5, read-out: EC50 (M), GT 2a Western blot, Table 1 summary) was 1e-06 M and the “T1/2 (time required for 50% reduction of the HCV NS3 protein)” value [6] was greater than 72 h.
